Laboratory results: patent publication US20040110265A1, “Recovery of enzyme activity from enveloped viruses” (priority 2001, published 2004)

Legend:
Format in all cases: biochemical
[1] = system: unidentified RT activity from human plasma; assay: RT assay (Cavidi HS-kit Lenti RT) with added components, human plasma polymerase; settings: 12 ng odT, 100% = no addition
Protocol: (§1) The effect of addition of indicated components to RT reaction mixture devoid of primer (Cavidi HS-kit Lenti RT) was investigated. EDTA plasma from two healthy blood donors (1 μl/assay), recombinant HIV 1 RT or FIV RT of cell culture origin was used as enzyme.

[2] = system: FIV RT of cell culture origin; assay: RT assay (Cavidi HS-kit Lenti RT) with added components, FIV RT; settings: 12 ng odT, 100% = no addition
Protocol: as §1

recombinant HIV 1 RT = target: T1, recombinant HIV 1 RT (Human immunodeficiency virus type 1 group M subtype B, UniProt P04585); assay: RT assay (Cavidi HS-kit Lenti RT) with added components, recombinant HIV 1 RT; settings: 12 ng odT, 100% = no addition
T1 construct: recombinant HIV 1 RT or FIV RT of cell culture origin was used as enzyme
Protocol: as §1

human plasma polymerase [3] = assay: Resurrection of plasma polymerase activity after treatment with cysteine-modifying agents; settings: for Polymerase activity after second incubation with indicated substance (% of control): no destroying agent in first incubation; for Conditions required to reactivate polymerase activity treated with the agent: 3 mM agent, then reactivating substances; for Polymerase activity after second incubation with DTT (% of control) / Polymerase activity after second incubation with MSA (% of control) / Polymerase activity after second incubation with cysteine (% of control) / Polymerase activity after second incubation with glutathione (% of control): 3 mM destroying agent first
Protocol: A set of human plasma samples (60% plasma in water) was first incubated with 3 mM of indicated cysteine-modifying substance or water (as control) at room temperature for 1 hour. Serial dilutions of five potentially reactivating substances were then added and the samples were incubated for another hour. Each sample was finally diluted 1:20 and residual RT activity was determined with Cavidi® HS kit Lenti RT. The total reduction in substance concentration between sample incubation and RT assay was 200 times. The RT activities recovered were recalculated into percent of the activity of a control consisting of plasma incubated in absence of additions during both incubation steps.

human plasma polymerase [4] = assay: Elimination of plasma polymerase without purification (substance, then cysteamine); settings: one hour at room temperature, then 20 mM cysteamine; no purification
Protocol: A) EDTA plasma from a healthy blood donor, B) FIV virus diluted in inactivated FCS (devoid of RT activity) or C) in Dulbeco minimal essential medium with 5% FCS were diluted 1:1 and incubated with indicated concentration of 5,5′-dithiobis-(2-nitrobensoic acid) for one hour at room temperature (20° C.). Each sample was then serially diluted in fourfold steps in conditioning buffer (B). Cysteamine to a final concentration of 20 mM was then added to all samples and the set was incubated for another hour at room temperature. The RT activity of each sample was then determined using Cavidi® HS kit Lenti RT. 15 μl of each sample was added to 135 μl reaction mixture giving a final cysteamine concentration in assay of 2 mM. The RT activity recovered at the three first dilutions corresponding to 7.5, 1.9 and 0.5 μl sample per RT assay was recalculated into percentage of a control incubated in absence of substance and plotted against the substance concentration, see FIG. 6.

human plasma RT = assay: Selective destruction of endogenous RT activity in plasma, protocol I; settings: EDTA plasma with disrupted lymphocytes, 1 hour at room temperature
Protocol: EDTA plasma with disrupted lymphocytes from a healthy blood donor and FIV diluted in inactivated foetal calf serum (totally devoid of plasma RT activity) were incubated for 1 hour at room temperature with indicated concentration of: A) 5,5′-dithiobis-(2-nitrobensoic acid), B) thimerosal. The samples were separated according to “Protocol for determination of retroviral RT from material which contains RT blocking antibodies”. The RT activities recovered were determined with an RT assay (Cavidi HS-kit Lenti RT).

[5] = 2.5 10^-6 M final concentration in RT assay
[6] = 1 mM final concentration in RT assay
[7] = 0.1 M final concentration in RT assay

SMILES	Activity of indicated enzyme in RT assay, plasma 1 [1, 5]	Activity of indicated enzyme in RT assay, plasma 2 [1, 5]	Activity of indicated enzyme in RT assay, FIV [2, 5]	Activity of indicated enzyme in RT assay, HIV (recombinant HIV 1 RT; [5])	Polymerase activity after second incubation with indicated substance (% of control) (human plasma polymerase [3]; 1.1 mM substance)	Polymerase activity after second incubation with indicated substance (% of control) (human plasma polymerase [3]; 3.3 mM substance)	Polymerase activity after second incubation with indicated substance (% of control) (human plasma polymerase [3]; 10 mM substance)	Polymerase activity after second incubation with indicated substance (% of control) (human plasma polymerase [3]; 30 mM substance)	further results
Nc1ncnc2c1ncn2[C@H]1CC[C@@H](COP(=O)(O)OP(=O)(O)OP(=O)(O)O)O1 [ddATP]	94%	105%	79%	90%	–	–	–	–	–
O[C@H](CS)[C@H](O)CS (racemic) [DTT, Dithiothreitol]	–	–	–	–	260%	613%	767%	860%	–
N[C@@H](CCC(=O)N[C@@H](CS)C(=O)NCC(=O)O)C(=O)O [glutathione]	–	–	–	–	72%	78%	80%	13%	–
Cc1ccc(S(=O)(=O)[N-]Cl)cc1.[Na+] [Chloramine T]	–	–	–	–	–	–	–	–	Conditions required to reactivate polymerase activity treated with the agent (human plasma polymerase [3]): required strongly reductive low molecular weight thiols for activation; Polymerase activity after second incubation with DTT (% of control) (human plasma polymerase [3]; 1.1 mM DTT): 2%; Polymerase activity after second incubation with MSA (% of control) (human plasma polymerase [3]; 1.1 mM MSA): 6%; Polymerase activity after second incubation with DTT (% of control) (human plasma polymerase [3]; 3.3 mM DTT): 51%; Polymerase activity after second incubation with MSA (% of control) (human plasma polymerase [3]; 3.3 mM MSA): 0%; Polymerase activity after second incubation with DTT (% of control) (human plasma polymerase [3]; 10 mM DTT): 80%; Polymerase activity after second incubation with MSA (% of control) (human plasma polymerase [3]; 10 mM MSA): 1%; Polymerase activity after second incubation with cysteine (% of control) (human plasma polymerase [3]; 10 mM cysteine): 4%; Polymerase activity after second incubation with glutathione (% of control) (human plasma polymerase [3]; 10 mM glutathione): 3%; Polymerase activity after second incubation with DTT (% of control) (human plasma polymerase [3]; 30 mM DTT): 94%; Polymerase activity after second incubation with MSA (% of control) (human plasma polymerase [3]; 30 mM MSA): 0%; Polymerase activity after second incubation with cysteine (% of control) (human plasma polymerase [3]; 30 mM cysteine): 9%
Cc1cn([C@H]2CC[C@@H](COP(=O)(O)OP(=O)(O)OP(=O)(O)O)O2)c(=O)[nH]c1=O [ddTTP]	7%	9%	28%	18%	–	–	–	–	–
O=C(O)CC(S)C(=O)O (centres unmarked) [MSA, Mercaptosuccinic acid]	–	–	–	–	109%	110%	64%	7%	–
O=C([O-])P(=O)(O)O.O=C([O-])P(=O)(O)O.O=C([O-])P(=O)(O)O.[Na+].[Na+].[Na+] [PFA, trisodium phosophonoformate]	–	–	–	–	–	–	–	–	Activity of indicated enzyme in RT assay, plasma 1 [1, 6]: 92%; Activity of indicated enzyme in RT assay, plasma 2 [1, 6]: 94%; Activity of indicated enzyme in RT assay, HIV (recombinant HIV 1 RT; [6]): 1%
N[C@@H](CS)C(=O)O [cysteine]	–	–	–	–	72%	82%	145%	198%	–
[Cl-].[K+] [KCl]	–	–	–	–	–	–	–	–	Activity of indicated enzyme in RT assay, plasma 1 [1, 7]: 17%; Activity of indicated enzyme in RT assay, plasma 2 [1, 7]: 20%; Activity of indicated enzyme in RT assay, FIV [2, 7]: 110%; Activity of indicated enzyme in RT assay, HIV (recombinant HIV 1 RT; [7]): 87%
Nc1nc2c(ncn2[C@H]2CC[C@@H](COP(=O)(O)OP(=O)(O)OP(=O)(O)O)O2)c(=O)[nH]1 [ddGTP]	103%	109%	93%	94%	–	–	–	–	–
Nc1ccn([C@H]2CC[C@@H](COP(=O)(O)OP(=O)(O)OP(=O)(O)O)O2)c(=O)n1 [ddCTP]	94%	103%	75%	89%	–	–	–	–	–
NCCS [cysteamine]	–	–	–	–	15%	9%	6%	6%	–
O=C(O)c1cc(SSc2ccc([N+](=O)[O-])c(C(=O)O)c2)ccc1[N+](=O)[O-] [5,5′-Dithiobis-(2-nitrobenzoic acid)]	–	–	–	–	–	–	–	–	Concentration after which human plasma polymerase activity was eliminated (human plasma polymerase [4]): above 0.47 mM; Conditions required to reactivate polymerase activity treated with the agent (human plasma polymerase [3]): required strongly reductive low molecular weight thiols for activation; Polymerase activity after second incubation with DTT (% of control) (human plasma polymerase [3]; 1.1 mM DTT): 0%; Polymerase activity after second incubation with MSA (% of control) (human plasma polymerase [3]; 1.1 mM MSA): 0%; Polymerase activity after second incubation with DTT (% of control) (human plasma polymerase [3]; 3.3 mM DTT): 1%; Polymerase activity after second incubation with MSA (% of control) (human plasma polymerase [3]; 3.3 mM MSA): 0%; Polymerase activity after second incubation with DTT (% of control) (human plasma polymerase [3]; 10 mM DTT): 143%; Polymerase activity after second incubation with MSA (% of control) (human plasma polymerase [3]; 10 mM MSA): 0%; Polymerase activity after second incubation with DTT (% of control) (human plasma polymerase [3]; 30 mM DTT): 122%; Polymerase activity after second incubation with MSA (% of control) (human plasma polymerase [3]; 30 mM MSA): 0%; Polymerase activity after second incubation with cysteine (% of control) (human plasma polymerase [3]; 30 mM cysteine): 7%; Polymerase activity after second incubation with glutathione (% of control) (human plasma polymerase [3]; 30 mM glutathione): 2%; Concentration that totally eliminated the human plasma RT activity (human plasma RT): above 0.4 mM
